Test results from US20250295826A1, “[…] UREASE INHIBITORS” (Symrise AG, priority 2022, published 2025).

Test system: urease
Assay: Application in cat litter: ammonia formation from artificial cat urine (headspace sampling)
Details: litter coated with 0.1% (w/w) active material; artificial cat urine with urea and urease; headspace ammonia over 5 days; negative control = 100
Description: The efficiency of reducing ammonia formation in cat litter was tested with different fragrance raw materials that are shown in the table below (table 3).
In brief, the litter was coated with a final concentration of 0.1% (w/w) of active material respective to the dry litter material. In a glass bottle with a total volume of 5 l, the litter is treated with artificial cat urine that consists of an aqueous salt solution containing urea and urease. The development of ammonia is measured through headspace sampling with an ammonia sensitive detector over a period of 5 days.

Row | SMILES | Relative ammonia formation in % [%]
1 | CCC/C=C/C=O [HEXENAL TRANS-2, trans-2-hexenal] | 32
2 | CC/C=C\CCOC(=O)CCC [HEXENYL BUTYRATE CIS-3, cis-3-hexenyl butyrate] | 65
3 | CC/C=C\CCOC(=O)c1ccccc1O [HEXENYL […]-3, cis-3-hexenyl salicylate] | 65
4 | CC/C=C\CCOC(C)OCC (stereo not drawn) [LEAF ACETAL, cis-1-(1-Ethoxyethoxy)-3-hexene] | 81

Test system: urease
Assay: Screening of urease inhibition (colorimetric Phenol Red assay, 96 well plates)
Type: biochemical
Details: Table 2; fraction vs negative control; additive 0.1 w/w, urea 0.2% w/w, urease 0.5 U/ml, 1 h
Description: Urease catalyzed ammonia formation leads to a change in pH (alkalization). […] The enzymatic screening assay is described below. The colorimetric assay is conducted in 96 well plates in combination with a microplate spectrophotometer with Phenol Red as pH sensitive indicator.
In brief: the substrate urea, the fragrance raw material and the urease are mixed in the wells and the change in absorption at 560 nm is monitored for 1 h. The resulting absorbance curves are compared to untreated samples (negative controls, without inhibitors) and samples with commercially available NBPT inhibitor (positive control).

Row | SMILES | Inhibition
5 | CCCCNP(N)(N)=S [NBPT, reference compound] | 1.00

Same assay, conditions: additive 0.1 w/w, urea 0.2% w/w, urease 0.5 U/ml, PBS pH 7.4, monitored 1 h

Row | SMILES | Δ Absorbance at 1 h (560 nm)
6 | CCCCNP(N)(N)=S [NBPT, reference compound] | 0.00

Same assay, conditions: positive hits table; fraction vs negative control; additive 0.1 w/w, urea 0.2% w/w, urease 0.5 U/ml, 1 h

Row | SMILES | Inhibition
7 | CCOc1cc(C)ccc1O [2-ethoxy-4-methylphenol] | 0.786
8 | OC/C=C/c1ccccc1 [CINNAMIC ALCOHOL, (2E)-3-phenylprop-2-en-1-ol] | 0.931
9 | C/C=C/C(=O)C1C(C)=CCCC1(C)C (stereo not drawn) [DAMASCONE ALPHA, (E)-1-(2,6,6-trimethyl-1-cyclohex-2-enyl)but-2-en-1-one] | 0.991
10 | C/C=C/C(=O)C1=C(C)C=CCC1(C)C [D[…], (E)-1-(2,6,6-trimethyl-1-cyclohexa-1,3-dienyl)but-2-en-1-one] | 0.985
11 | C=CCc1ccc(O)c(OC)c1 [EUGENOL NAT., 2-Methoxy-4-(prop-2-en-1-yl)phenol] | 0.908
12 | Cc1ccc2c(c1)OC(=O)C2C (stereo not drawn) [FURAMINTON/TONKALACTONE ™, dimethyl-3,6-benzo-2(3H)-furanone] | 0.669
13 | CC1=C(O)C(=O)C(C)O1 (stereo not drawn) [FURANEOL, 4-Hydroxy-2,5-dimethyl-3-furanone] | 0.985
14 | CC(C)=CCC/C(C)=C/CO [GERANIOL 60 B, 2,6-Octadien-1-ol 3,7-dimethyl] | 0.910
15 | COc1ccccc1O [GUAIACOL, 2-Methoxyphenol] | 0.718
16 | CCC/C=C/C=O [HEXENAL TRANS-2, trans-2-hexenal] | 0.961
17 | CC/C=C\CCO [HEXENOL CIS-3, cis-3-hexenol] | 0.888
18 | CCC/C=C/CO [HEXENOL TRANS-2, trans-2-hexenol] | 0.912
19 | CC/C=C\CCOC(C)=O [HEXENYL ACETATE CIS-3, cis-3-hexenyl acetate] | 0.723
20 | CC/C=C\CCOC(=O)CCC [HEXENYL BUTYRATE CIS-3, cis-3-hexenyl butyrate] | 0.999
21 | CC/C=C\CCOC(=O)CCCCC [HEXENYL CAPROATE CIS-3, cis-3-hexenyl hexanoate] | 0.824
22 | CC/C=C\CCOC(=O)C(C)C [HEXENYL I[…]-3, cis-3-hexenyl isobutyrate] | 0.865
23 | CC/C=C\CCOC(=O)CC(C)C [HEXENYL I[…]-3, cis-3-hexenyl isovalerate] | 0.724
24 | CC/C=C\CCOC(=O)CC [HEXENYL […]-3, cis-3-hexenyl propionate] | 0.956
25 | CC/C=C\CCOC(=O)c1ccccc1O [HEXENYL […]-3, cis-3-hexenyl salicylate] | 0.989
26 | CC/C=C\CCOC(C)OCC (stereo not drawn) [LEAF ACETAL, cis-1-(1-Ethoxyethoxy)-3-hexene] | 0.964
27 | CCC(=O)/C=C/C1C(C)=CCCC1(C)C (stereo not drawn) [METHYL IONONE ALPHA/IFF, methyl ionone alpha] | 0.936
28 | CC(=O)/C(C)=C/C1C(C)=CCCC1(C)C (stereo not drawn) [METHYL IONONE GAMMA PURE/IFF, methyl ionone gamma] | 0.942
29 | CC(C)=CCC/C(C)=C\CO [NEROL 900, (2Z)-3,7-dimethylocta-2,6-dien-1-ol] | 0.758
30 | CC/C=C\CC/C=C/CO [NONADIENOL-2,6, 2,6-nonadien-1-ol] | 0.885
